The subject of one assay is T1, GRASP55‐PDZ tandem.
T1 construct: made in house; host or cells: Biotin XCell F' E. coli cells
Briefly: Surface plasmon resonance (BIAcore), GRASP55 PDZ tandem. Type of assay: binding, human. Conditions: 50µM ‐1000 µM. As for the experimental part:
All SPR experiments were conducted with a BIAcore T200 instrument (GE Healthcare), at 25°C. A total of 8000 resonance units (RU) of biotinylated ligands (N‐terminal 6xHis tagged biotinylated syntenin tandem, syntenin tandem with C terminus, GRASP55 tandem or GST as control) were immobilized on a streptavidin‐sensor chip (GE Healthcare). Analytes (C58 and SyntOFF compounds) were perfused at 30 µl per min in running buffer (10 mM HEPES pH 7.4, 150 mM NaCl, 0.005% Tween20) at different concentrations. The reference channel was N‐terminal 6xHis tagged biotinylated GST protein. The injection time was 240 s, long enough for the sensorgrams to reach equilibrium, and the dissociation time was 240 s. To carry out these SPR experiments, we employed the method known as ‘single‐cycle kinetics’ described in 2006 by Karlsson and co‐workers (Karlsson, Katsamba, Nordin, Pol, & Myszka, 2006). It consists in injecting the analyte at increasing concentrations, without regeneration steps between each sample injection to avoid that folded‐proteins can be damaged after regeneration steps. Equilibrium dissociation constants (KD) were calculated by fitting the data to a simple Langmuir binding isotherm using GraphPad Prism. For determination of the apparent KD, signals obtained at equilibrium were plotted as a function of compound concentration. […]
In general terms: In SPR one partner is held on a chip, and binding of the other changes the refractive index at the surface.

Another assay concerns MCF‐7 cells. Briefly: Soft agar colony formation assay. Conditions: wild-type MCF-7, 100 µM. Type of assay: cell-based. As for the experimental part: Agarose was melted in water and mixed with DMEM‐F12 medium pre‐incubated at 37°C to reach a 0.6% or a 0.36 % final concentration. A lower layer of 0.6% agarose was deposited in each well of a 96‐well plate except that the first and last rows and columns of the plate were filled with PBS to avoid drying. Agarose was allowed to cool for 15 min before the upper layer containing different concentrations of cells, a final concentration of 0.36% agarose and compounds (100 µM) was added. Compounds were added only once at the beginning of experiment. Each condition was tested in triplicate. Colonies were kept at 37°C in a 5% CO2 incubator and daily observed under microscope. At the end of the experiment, cells were tested for their ATP content, an indicator of their metabolic activity, using the Promega kit G7570. In this assay, ATP is used as a co‐factor for a luciferase reaction. Signals were analysed by measuring luminescence with a LUMIstar luminometer (BMG Labtech).

Assay [1] concerns MCF‐7 cells (exosomal markers). Briefly: Western blot of exosomal fractions (exosome cargo). Type of assay: cell-based. Conditions: CAY10594 10 µM, 16 h. As for the experimental part:
For comparative analyses, exosome‐enriched fractions were collected from equivalent amounts of culture medium, conditioned by equivalent amounts of cells. MCF‐7 cells were treated with indicated compounds or with DMSO 0.2% as control, in medium containing exosome‐depleted FCS (10%). After 16 h, cell media were collected and exosomes were isolated by three sequential centrifugation steps at 4 °C: 10 min at 500 × g, to remove cells; 30 min at 10,000 × g, to remove cell debris; and 1h30min at 100,000 × g, to pellet exosomes (exosome‐enriched fraction), followed by one wash with 1400 µl of PBS1X (100,000 × g, 1 h), to remove soluble serum and secreted proteins. Exosomal pellets were then re‐suspended in 100 µl of PBS1X. The lysates from corresponding cultures were cleared by centrifugation at 1500 rpm for 5 min and then resuspended in lysis buffer (TrisHCL pH 7.4 30 mM, NaCl 150 mM, 1% NP40 (IGEPAL), 1 µg/ml aprotinin, 1 µg/ml leupeptin). Although only little variations were observed from sample to sample, exosomal amounts loaded for the western blot were normalized according to the number of parent cells from where exosomes were secreted.
The proteins were heat‐denaturated in Laemmli sample buffer, fractionated in 12.5% or 15% gels by SDS–PAGE and electro‐transferred to nitrocellulose membrane. Membranes were stained with Ponceau red and immunoblotted with the indicated primary antibodies for: CD9 (1/5000), CD63 (1/5000), CD81 (1/5000) and ADAM10 (1/1000) antibodies provided by E. Rubinstein (Charrin et al., 2001) (Université Paris‐Sud UMRS_935, Villejuif); syntenin (Homemade (Kashyap et al., 2015); 1/3000), Tubulin (Sigma‐Aldrich; 1/10,000), ALIX (Homemade (Baietti et al., 2012); 1/500), HSP70 (Santa Cruz Biotechnology; 1/500), Flotillin‐1 (BD Biosciences; 1/1000), EGFR (Cell Signaling; 1/1000), EpCAM (Santa Cruz Biotechnology; 1/200), Fibronectin (BD Biosciences; 1/5000), Src (Cell signaling; 1/1000), TSP1 (Lab Vision; 1/100), SDC1 intracellular domain (Homemade (Baietti et al., 2012); 1/1000), SDC4 intracellular domain (Abnova; 1/2000), and HRP‐conjugated secondary antibodies (Mouse or Rabbit, Thermofisher scientific; 1/10,000). Signals were visualized using Amersham ECL Prime Western Blotting Detection Reagent (GE Healthcare).
On the technique in general: A western blot detects proteins with antibodies after separation by electrophoresis.

For `CC(C)[C@H](NC(=O)CSc1ccc(Cl)cc1)C(=O)O` [Compound C58], the “binding to GRASP55‐PDZ tandem” value with GRASP55‐PDZ tandem is given as “no binding”. Further, the “colony formation in soft agar” value in the assay with MCF‐7 cells is on record as “decreases”.
Consider `CC(C)[C@H](NC(=O)CCSc1ccc(Cl)cc1)C(=O)O` [SyntOFF, (S)‐2‐(3‐(4‐chlorophenylthio)propanamido)‐3‐methylbutanoic acid], for which, in assay [1] (SyntOFF 100 µM), the “exosomal ADAM10 signal” value is “unaffected”, the “exosomal CD81” value is given as “that was not the case”, the “exosomal EGFR signal” value is given as “unaffected” and the “exosomal TSP1 signal” value was “unaffected”. In assay [1] (SyntOFF 100 µM), the exosomal fibronectin signal result is reported as “unaffected”, the “incorporation of EpCAM into exosomes” value is “markedly decrease” and the “incorporation of c‐Src into exosomes” value is listed as “markedly decrease”. For the same molecule, in assay [1] (cSyntOFF, C58, SyntOFF 100 µM), the “amount of exosomal ALIX” value is “significantly decreased”, the “amount of exosomal SDC4 C‐terminal fragment (CTF)” value was “significantly decreased” and the “amount of exosomal syntenin” value is reported as “significantly decreased”.

The values are drawn from PMC7737769, “Pharmacological inhibition of syntenin PDZ2 domain impairs breast cancer cell activities and exosome loading with syndecan and EpCAM cargo” (Journal of Extracellular Vesicles, 2020).
